{"source": "patent US12492184B2", "about": "“Heteroaryl compounds, preparation methods and uses thereof” (InventisBio Co., Ltd., priority 2020, dated 2025)"}
{"system": "HEK-Blue IL23 Reporter", "experiment": "HEK-Blue IL-23 STAT3 Reporter Assay", "assay_type": "cell-based, human", "details": "HEK-Blue IL23 cells stimulated with IL-23 overnight; SEAP read with QUANTI-Blue at OD655", "description": "(§1) HEK-Blue IL23 cells (InvivoGen catalog #HKB-IL23) are designed for the detection of bioactive IL-23 by monitoring the activation of the STAT3 pathway. They were generated by stably introducing the genes for the human IL-23 receptor, STAT3, and the SEAP (secreted embryonic alkaline phosphatase) reporter gene into human HEK293 cell line.\n(§2) Briefly, around 50,000 cells in DMEM medium supplemented with 10% heat inactivated FBS (˜180 ul) were seeded into each well and incubate for 48 hours at 37° C. with 5% CO2 in air. On day 3, one microliter of compound and 20 ul IL-23 were transferred to the assay plate respectively. The plate was left in the 37° C. incubator overnight. Two microliter of cell supernatant was transferred to a 384-well plate, and 18 ul of resuspended QUANTI-Blue solution was added to each well. SLAP levels were determined using Tecan Spark at OD655.\n(§3) Cells with no IL23 added were used as Low control. Cells stimulated with IL23 were used as High control. Inhibition rate was calculated with the formula of % inhibition=100*(High control−Treated Well)/(High Control−Low control). IL-23 reporter assay inhibition IC50 was calculated with the equation of Y=Bottom+(Top-Bottom)/(1+10^((Log IC50−X)*HillSlope)).", "units": {"IC50": "nM"}}
{"smiles": "[2H]C([2H])([2H])NC(=O)c1nnc(NC(=O)[C@H]2CC23CC3)cc1Nc1ncccc1S1(=O)=NCCC1", "note": "(single isomer, unassigned) [Compound 94]", "IC50": 137}
{"smiles": "[2H]C([2H])([2H])NC(=O)c1nnc(NC(=O)[C@H]2CC23CC3)cc1Nc1ncccc1S(C)(=O)=NC", "note": "(stereo partly shown) [Compound 98]", "IC50": 188}
{"smiles": "[2H]C([2H])([2H])NC(=O)c1nnc(NC(=O)[C@H]2CC23CC3)cc1Nc1ncccc1S1(=O)=NCCC1", "note": "(stereo partly shown) [Compound 95]", "IC50": 19.5}
{"smiles": "[2H]C([2H])([2H])NC(=O)c1nnc(NC(=O)[C@H]2CC23CC3)cc1Nc1nccc2c1S(C)(=O)=NC2", "note": "(stereo partly shown) [Compound 130]", "IC50": 59.9}
{"smiles": "[2H]C([2H])([2H])NC(=O)c1nnc(NC(=O)C2CC2)cc1Nc1nccc2c1S(C)(=O)=NC2", "note": "(stereo not shown) [Compound 56]", "IC50": 0.3}
{"smiles": "[2H]C([2H])([2H])NC(=O)c1nnc(NC(=O)C2CCCC2)cc1Nc1nccc2c1S(C)(=O)=NC2", "note": "(stereo not shown) [Compound 91]", "IC50": "≥ 1000"}
{"system": "HEK-Blue IL23 Reporter", "experiment": "HEK-Blue IL-23 STAT3 Reporter Assay", "assay_type": "cell-based, human", "details": "Homo sapiens, HEK-Blue IL-23, HEK-Blue IL23 cells stimulated with IL-23 overnight; SEAP read with QUANTI-Blue at OD655", "description": "as §1, §2, §3", "units": {"IC50": "nM"}}
{"smiles": "[2H]C([2H])([2H])NC(=O)c1nnc(NC(=O)C2CC2)cc1Nc1ncc(OC2COC2)cc1S(C)(=O)=O", "note": "[Compound 63]", "IC50": 1.9}
{"smiles": "CS(=O)(=O)c1cccnc1Nc1cc(NC(=O)C2CC23CC3)ncc1C(=O)C1CC1", "note": "(stereo not shown) [Compound 12]", "IC50": 140}
{"smiles": "[2H]C([2H])([2H])NC(=O)c1nnc(NC(=O)C2CC2)cc1Nc1ncc(OCCN(C)C)cc1S(C)(=O)=O", "note": "[Compound 61]", "IC50": 19.9}
{"smiles": "[2H]C([2H])([2H])NC(=O)c1nnc(NC(=O)C2CC2)cc1Nc1ncc(C2CC2)cc1S(C)(=O)=O", "note": "[Compound 46]", "IC50": 0.2}
{"smiles": "[2H]C([2H])([2H])NC(=O)c1nnc(NC(=O)OC)cc1Nc1ncc(OC)cc1S(C)(=O)=O", "note": "[Compound 19]", "IC50": 20.9}
{"smiles": "[2H]C([2H])([2H])NC(=O)c1nnc(NC2CC2)cc1Nc1ncccc1S(C)(=O)=O", "note": "[Compound 22]", "IC50": 106}
{"smiles": "[2H]C([2H])([2H])NC(=O)c1nnc(NC(=O)[C@H]2C[C@@H](NC)C2)cc1Nc1ncc(C2CC2)cc1S(C)(=O)=O", "note": "[Compound 86]", "IC50": 30.8}
{"smiles": "[2H]C([2H])([2H])NC(=O)c1nnc(NC(=O)C2CC2)cc1Nc1ncc(Cl)cc1S(C)(=O)=O", "note": "[Compound 52]", "IC50": 2.5}
{"smiles": "[2H]C([2H])([2H])NC(=O)c1nnc(NC(=O)C2CC2)cc1Nc1ncc(N2CCOC[C@@H]2C)cc1S(C)(=O)=O", "note": "[Compound 82]", "IC50": 9}
{"smiles": "[2H]C([2H])([2H])NC(=O)c1nnc(NC(=O)[C@@H]2CC23CC3)cc1Nc1ncc(OC)cc1S(C)(=O)=O", "note": "[Compound 2]", "IC50": 4.3}
{"smiles": "[2H]C([2H])([2H])NC(=O)c1nnc(NC(=O)C2CC2)cc1Nc1ncc(OCCOC)cc1S(C)(=O)=O", "note": "(single isomer, unassigned) [Compound 59]", "IC50": 0.4}
{"smiles": "[2H]C([2H])([2H])NC(=O)c1nnc(NC(=O)[C@H]2CC23CC3)cc1Nc1ncc(OCCOC)cc1S(C)(=O)=O", "note": "[Compound 107]", "IC50": 0.8}
{"smiles": "[2H]C([2H])([2H])NC(=O)c1nnc(NC(=O)C2CC2)cc1Nc1ncc(O[C@@H](C)COC)cc1S(C)(=O)=O", "note": "[Compound 69]", "IC50": 0.2}
{"smiles": "[2H]C([2H])([2H])NC(=O)c1nnc(NC(=O)[C@H]2CC23CC3)cc1Nc1ncc(N2CCOC[C@H]2C)cc1S(C)(=O)=O", "note": "[Compound 121]", "IC50": 1.2}
{"smiles": "[2H]C([2H])([2H])NC(=O)c1cnc(NC(=O)[C@@H]2CC23CC3)cc1Nc1ncc(C2CC2)cc1S(C)(=O)=O", "note": "[Compound 118]", "IC50": 0.6}
{"smiles": "[2H]C([2H])([2H])NC(=O)c1nnc(NC(=O)[C@H]2CC23CC3)cc1Nc1ncc(O[C@@H](C)COC)cc1S(C)(=O)=O", "note": "[Compound 114]", "IC50": 1}
{"smiles": "[2H]C([2H])([2H])NC(=O)c1nnc(NC(=O)C2CC2)cc1Nc1ncc(F)cc1S(C)(=O)=O", "note": "[Compound 45]", "IC50": 1.5}
{"smiles": "[2H]C([2H])([2H])NC(=O)c1nnc(NC(=O)[C@H]2C[C@H](OC)C2)cc1Nc1ncc(C2CC2)cc1S(C)(=O)=O", "note": "[Compound 85]", "IC50": 2.1}
{"smiles": "[2H]C([2H])([2H])NC(=O)c1nnc(NC(=O)C2CC2)cc1Nc1nc(C)c(F)cc1S(C)(=O)=O", "note": "[Compound 72]", "IC50": 1.6}
{"smiles": "[2H]C([2H])([2H])NC(=O)c1nnc(NC(=O)[C@H]2[C@@H]3COC[C@@H]32)cc1Nc1ncccc1S(C)(=O)=O", "note": "[Compound 38]", "IC50": 15.3}
{"smiles": "[2H]C([2H])([2H])NC(=O)c1nnc(NC(=O)C2(C)CC2)cc1Nc1ncc(OC)cc1S(C)(=O)=O", "note": "[Compound 28]", "IC50": 35.1}
{"smiles": "[2H]C([2H])([2H])NC(=O)c1nnc(NC(=O)[C@H]2CC23CC3)cc1Nc1ncc(OC(C)C)cc1S(C)(=O)=O", "note": "[Compound 43]", "IC50": 0.34}
{"smiles": "[2H]C([2H])([2H])NC(=O)c1nnc(NC(=O)C2CC2)cc1Nc1ncc(OC(F)(F)F)cc1S(C)(=O)=O", "note": "(single isomer, unassigned) [Compound 53]", "IC50": 1.9}
{"smiles": "[2H]C([2H])([2H])NC(=O)c1nnc(NC(=O)NC2CC2)cc1Nc1ncccc1S(C)(=O)=O", "note": "[Compound 21]", "IC50": 8.9}
{"smiles": "[2H]C([2H])([2H])NC(=O)c1nnc(NC(=O)C2CC2)cc1Nc1ncc(C(C)(C)O)cc1S(C)(=O)=O", "note": "[Compound 131]", "IC50": 9}
{"smiles": "[2H]C([2H])([2H])NC(=O)c1nnc(NC(=O)[C@H]2CC23CC3)cc1Nc1ncc(N2CCC2)cc1S(C)(=O)=O", "note": "[Compound 133]", "IC50": 1.2}
{"smiles": "[2H]C([2H])([2H])NC(=O)c1nnc(NC(=O)[C@H]2CC23CC3)cc1Nc1ncc(C(C)(C)O)cc1S(C)(=O)=O", "note": "[Compound 120]", "IC50": 14.7}
{"smiles": "[2H]C([2H])([2H])NC(=O)c1nnc(NC(=O)[C@H]2CC23CC3)cc1Nc1ncc(CC)cc1S(C)(=O)=O", "note": "[Compound 44]", "IC50": 1}
{"smiles": "[2H]C([2H])([2H])NC(=O)c1nnc(NC(=O)[C@H]2CC23CC3)cc1Nc1nccc(OC)c1S(C)(=O)=O", "note": "[Compound 34]", "IC50": 548}
{"smiles": "[2H]C([2H])([2H])NC(=O)c1nnc(NC(=O)[C@H]2CC23CC3)cc1Nc1nc(C)c(F)cc1S(C)(=O)=O", "note": "[Compound 125]", "IC50": 7.3}
{"smiles": "[2H]C([2H])([2H])NC(=O)c1nnc(-c2cc(C)n[nH]2)cc1Nc1ncccc1S(C)(=O)=O", "note": "[Compound 25]", "IC50": "≥ 1000"}
{"smiles": "[2H]C([2H])([2H])NC(=O)c1nnc(NC(=O)[C@H]2CC23CC3)cc1Nc1ncc(C2(F)COC2)cc1S(C)(=O)=O", "note": "[Compound 109]", "IC50": 284}
{"smiles": "[2H]C([2H])([2H])NC(=O)c1nnc(NC(=O)C2CC23CC3)cc1Nc1ncccc1S(C)(=N)=O", "note": "(stereo not shown) [Compound 7]", "IC50": 14.4}
{"smiles": "[2H]C([2H])([2H])NC(=O)c1nnc(NC(=O)[C@H]2CC23CC3)cc1Nc1ncc(OC[C@H](C)OC)cc1S(C)(=O)=O", "note": "[Compound 112]", "IC50": 2.7}
{"smiles": "[2H]C([2H])([2H])NC(=O)c1cnc(NC(=O)C2CC2)cc1Nc1ncc(Cl)cc1S(C)(=O)=O", "note": "[Compound 80]", "IC50": 1.5}
{"smiles": "[2H]C([2H])([2H])NC(=O)c1nnc(NC(=O)N2CCC2)cc1Nc1ncc(OC)cc1S(C)(=O)=O", "note": "[Compound 89]", "IC50": 7.9}
{"smiles": "[2H]C([2H])([2H])NC(=O)c1nnc(NC(=O)C2CC2)cc1Nc1ncc(OC)cc1S(C)(=O)=O", "note": "[Compound 14]", "IC50": 1.3}
{"smiles": "[2H]C([2H])([2H])NC(=O)c1nnc(NC(=O)[C@H]2CC23CC3)cc1Nc1ncc(C2CC2)cc1S(C)(=O)=O", "note": "[Compound 5]", "IC50": 1.7}
{"smiles": "[2H]C([2H])([2H])NC(=O)c1nnc(NC(=O)[C@H]2CC23CC3)cc1Nc1ncc(OCC(C)(C)O)cc1S(C)(=O)=O", "note": "[Compound 111]", "IC50": 7.5}
{"smiles": "[2H]C([2H])([2H])NC(=O)c1nnc(NC(=O)NC2CC2)cc1Nc1ncc(OC)cc1S(C)(=O)=O", "note": "[Compound 51]", "IC50": 6.2}
{"smiles": "[2H]C([2H])([2H])NC(=O)c1nnc(NC(=O)C2CC2)cc1Nc1ncc(OC[C@H](C)OC)cc1S(C)(=O)=O", "note": "[Compound 67]", "IC50": 1}
{"smiles": "[2H]C([2H])([2H])NC(=O)c1nnc(NC(=O)C2CC2)cc1Nc1ncc(C(F)F)cc1S(C)(=O)=O", "note": "(single isomer, unassigned) [Compound 58]", "IC50": 2.7}
{"smiles": "[2H]C([2H])([2H])NC(=O)c1nnc(NC(=O)[C@H]2C[C@@H](OC)C2)cc1Nc1ncc(C2CC2)cc1S(C)(=O)=O", "note": "[Compound 84]", "IC50": 4.1}
{"smiles": "[2H]C([2H])([2H])NC(=O)c1nnc(NC(=O)[C@H]2CC23CC3)cc1Nc1ncc(OC2COC2)cc1S(C)(=O)=O", "note": "[Compound 110]", "IC50": 2.7}
{"smiles": "[2H]C([2H])([2H])NC(=O)c1nnc(NC(=O)[C@H]2CC23CC3)cc1Nc1nc(C)c(OC)cc1S(C)(=O)=O", "note": "[Compound 100]", "IC50": 2.1}
{"smiles": "[2H]C([2H])([2H])CC(=O)c1nnc(NC(=O)[C@H]2CC23CC3)cc1Nc1ncccc1S(C)(=O)=O", "note": "[Compound 96]", "IC50": 189}
{"smiles": "[2H]C([2H])([2H])NC(=O)c1nnc(NC(=O)[C@H]2[C@@H]3COC[C@@H]32)cc1Nc1ncc(OC)cc1S(C)(=O)=O", "note": "[Compound 37]", "IC50": 10.2}
{"smiles": "[2H]C([2H])([2H])NC(=O)c1nnc(NC(=O)[C@H]2CC23CC3)cc1Nc1ncc(C(F)(F)F)cc1S(C)(=O)=O", "note": "[Compound 32]", "IC50": 5.3}
{"smiles": "[2H]C([2H])([2H])NC(=O)c1nnc(NC(=O)C2CC23CC3)cc1Nc1ncc(OC)cc1S(C)(=O)=O", "note": "(stereo not shown) [Compound 1]", "IC50": 3.5}
{"smiles": "[2H]C([2H])([2H])NC(=O)c1cnc(NC(=O)C2CC2)cc1Nc1ncc(OC(C)C)cc1S(C)(=O)=O", "note": "[Compound 81]", "IC50": 0.9}
{"smiles": "COC(=O)Nc1cc(Nc2ncccc2S(C)(=O)=O)c(C(N)=O)nn1", "note": "[Compound 23]", "IC50": 58.5}
{"smiles": "[2H]C([2H])([2H])NC(=O)c1nnc(NC(=O)C2CC2)cc1Nc1ncc(OC[C@H](C)OC=O)cc1S(C)(=O)=O", "note": "[Compound 74]", "IC50": 2.2}
